Data from patent publication US20240018123A1, “COMPOUND FOR INHIBITING OR DISINTEGRATING ANDROGEN RECEPTOR, AND PHARMACEUTICAL USE THEREOF” (KOREA RESEARCH INSTITUTE OF CHEMICAL TECHNOLOGY, priority 2020, published 2024).
Where two headings read alike, the source gives them in different places.

Key:
[1] = target: T1, Androgen receptor (AR) (Homo sapiens, UniProt P10275, T878A); assay: Assessment of AR proteolytic activity (Western blotting of LNCap cell lysates); format: cell-based; settings: 24 hours of treatment, Western blotting quantified with Image J
T1 construct: 5.5×10^5 LNCap cells were injected into each well of a 6-well plate; endogenous in cells; host or cells: LNCaP
T1 sequence (P10275 1-920 T878A): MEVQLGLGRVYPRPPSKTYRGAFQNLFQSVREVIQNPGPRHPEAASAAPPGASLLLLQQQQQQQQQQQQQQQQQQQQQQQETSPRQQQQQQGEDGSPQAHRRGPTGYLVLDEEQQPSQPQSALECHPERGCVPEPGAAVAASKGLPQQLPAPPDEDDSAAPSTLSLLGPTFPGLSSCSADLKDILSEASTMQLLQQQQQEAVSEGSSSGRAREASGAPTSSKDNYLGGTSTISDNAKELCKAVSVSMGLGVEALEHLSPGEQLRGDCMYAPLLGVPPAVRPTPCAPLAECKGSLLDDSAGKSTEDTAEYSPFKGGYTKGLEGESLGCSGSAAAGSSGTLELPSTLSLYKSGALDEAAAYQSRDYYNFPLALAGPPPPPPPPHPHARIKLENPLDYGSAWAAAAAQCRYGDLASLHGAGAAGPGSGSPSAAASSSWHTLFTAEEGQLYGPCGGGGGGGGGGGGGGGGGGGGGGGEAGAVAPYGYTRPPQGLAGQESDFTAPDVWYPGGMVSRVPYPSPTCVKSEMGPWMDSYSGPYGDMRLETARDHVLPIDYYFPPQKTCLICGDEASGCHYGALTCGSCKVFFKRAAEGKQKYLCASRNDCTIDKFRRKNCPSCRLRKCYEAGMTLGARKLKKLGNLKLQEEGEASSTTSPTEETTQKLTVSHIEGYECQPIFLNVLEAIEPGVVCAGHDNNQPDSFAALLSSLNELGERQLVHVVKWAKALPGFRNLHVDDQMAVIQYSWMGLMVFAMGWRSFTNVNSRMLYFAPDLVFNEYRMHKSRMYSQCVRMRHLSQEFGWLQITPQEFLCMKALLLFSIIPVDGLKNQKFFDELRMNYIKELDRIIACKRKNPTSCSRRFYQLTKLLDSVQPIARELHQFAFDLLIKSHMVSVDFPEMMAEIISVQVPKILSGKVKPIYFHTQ
Method in brief: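 AR degradation read by Western blot densitometry on RIPA lysates (pH 7.5, protease inhibitor cocktail). Lysates came from LNCap cells, 5.5×10^5 per well, exposed to compound for 24 hours.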

[2] = tested on: LNCaP cells; assay: Cytotoxicity assessment (Cell-titer-glo cell viability), LNCaP
Description: In order to evaluate the androgen receptor (AR) cytotoxicity of the compounds according to the present invention, the following experiment was conducted. Specifically, 1.5×10^3 (LNCaP) or 4×10^3 (VCaP, 22RV1), respectively, of LNCaP, VCaP, and 22RV1 cells were injected into each well of a 96-well plate. The next day, each well was treated with the compound at a final concentration of 3 nM, 10 nM, 30 nM, 100 nM, 300 nM, 1 μM, 3 μM, and 10 μM. […] After 6 days of treatment, Cell-titer-glo (promega) was treated and reacted for 10 minutes, and cell viability was measured with a multimode plate reader (PerkinElmer, Inc.), and the change was quantified compared to when DMSO was treated.

[3] = tested on: VCaP cells; assay: Cytotoxicity assessment (Cell-titer-glo cell viability), VCaP; settings: read-out: VCaP (CC50); VCaP cells, 6 days of treatment, Cell-titer-glo, vs DMSO
[4] = read-out: LNCAP (CC50), LNCaP cells, 6 days of treatment, Cell-titer-glo, vs DMSO

| Compound | Degradation (1 μM treated in LNCaP, % AR remaining) [1] [%] | CC50 [2, 4] [µM] | remaining activity at 1 µM ([1]; read-out: Degradation (1 μM treated in LNCaP, % AR remaining)) [%] | CC50 ([2]; Homo sapiens, LNCaP, 144 h, read-out: LNCAP (CC50, μM)) [µM] | CC50 [3] [nM] |
| --- | --- | --- | --- | --- | --- |
| CC1(C)[C@H](NC(=O)c2ccc(OCCOCCOCCOCCOCCOCCNc3cccc4nnn(C5CCC(=O)NC5=O)c(=O)c34)cc2)C(C)(C)[C@H]1Oc1ccc(C#N)c(Cl)c1 (some centres unmarked) [Example 1, N-((1r,3r)-3-(3-chloro-4-cyanophenoxy)-2,2,4,4-tetramethylcyclobutyl)-4-((17-((3-(2,6-dioxopiperidin-3-yl)-4-oxo-3,4-dihydrobenzo[d][1,2,3]triazin-5-yl)amino)-3,6,9,12,15-pentaoxaheptadecyl)oxy)benzamide] | 72 | 5.69 |  |  |  |
| CC1(C)[C@H](NC(=O)c2ccc(N3CCN(CC4CCN(C(=O)COc5ccc6nnn(C7CCC(=O)NC7=O)c(=O)c6c5)CC4)CC3)cc2)C(C)(C)[C@H]1Oc1ccc(C#N)c(Cl)c1 (some centres unmarked) [Example 13, N-((1r,3r)-3-(3-chloro-4-cyanophenoxy)-2,2,4,4-tetramethylcyclobutyl)-4-(4-((1-(2-((3-(2,6-dioxopiperidin-3-yl)-4-oxo-3,4-dihydrobenzo[d][1,2,3]triazin-6-yl)oxy)acetyl)piperidin-4-yl)methyl)piperazin-1-yl)benzamide] |  |  | 8.3 | 0.803 |  |
| CC1(C)C(NC(=O)c2ccc(OCCOCCOCCOCCOCCOCCCCNC(=O)C3CCN(c4ccc5nnn(C6CCC(=O)NC6=O)c(=O)c5c4)CC3)cc2)C(C)(C)C1Oc1ccc(C#N)c(Cl)c1 (centres unmarked) [Example 15, N-(1-(4-(((1r,3r)-3-(3-chloro-4-cyanophenoxy)-2,2,4,4-tetramethylcyclobutyl)carbamoyl)phenoxy)-3,6,9,12,15-pentaoxanonadecan-19-yl)-1-(3-(2,6-dioxopiperidin-3-yl)-4-oxo-3,4-dihydrobenzo[d][1,2,3]triazin-6-yl)piperidine-4-carboxamide] | 13.6 | 1.31 |  |  |  |
| CC1(C)C(NC(=O)c2ccc(OCCOCCOCCOCCOCCOCCCCNC(=O)C3CN(c4ccc5nnn(C6CCC(=O)NC6=O)c(=O)c5c4)C3)cc2)C(C)(C)C1Oc1ccc(C#N)c(Cl)c1 (centres unmarked) [Example 16, N-(1-(4-(((1r,3r)-3-(3-chloro-4-cyanophenoxy)-2,2,4,4-tetramethylcyclobutyl)carbamoyl)phenoxy)-3,6,9,12,15-pentaoxanonadecan-19-yl)-1-(3-(2,6-dioxopiperidin-3-yl)-4-oxo-3,4-dihydrobenzo[d][1,2,3]triazin-6-yl)azetidine-3-carboxamide] | 12.6 | 1.95 |  |  |  |
| CC1(C)[C@H](NC(=O)c2ccc(N3CCN(C4CC5(CCN(C(=O)COc6ccc7nnn(C8CCC(=O)NC8=O)c(=O)c7c6)CC5)C4)CC3)cc2)C(C)(C)[C@H]1Oc1ccc(C#N)c(Cl)c1 (some centres unmarked) [Example 18, N-((1r,3r)-3-(3-chloro-4-cyanophenoxy)-2,2,4,4-tetramethylcyclobutyl)-4-(4-(7-(2-((3-(2,6-dioxopiperidin-3-yl)-4-oxo-3,4-dihydrobenzo[d][1,2,3]triazin-6-yl)oxy)acetyl)-7-azaspiro[3.5]nonan-2-yl)piperazin-1-yl)benzamide] | 23 | 0.196 |  |  |  |
| CC1(C)[C@H](NC(=O)c2ccc(N3CCN(C4CC5(CCN(C(=O)C6CN(c7ccc8nnn(C9CCC(=O)NC9=O)c(=O)c8c7)C6)CC5)C4)CC3)cc2)C(C)(C)[C@H]1Oc1ccc(C#N)c(Cl)c1 (some centres unmarked) [Example 21, N-((1r,3r)-3-(3-chloro-4-cyanophenoxy)-2,2,4,4-tetramethylcyclobutyl)-4-(4-(7-(1-(3-(2,6-dioxopiperidin-3-yl)-4-oxo-3,4-dihydrobenzo[d][1,2,3]triazin-6-yl)azetidine-3-carbonyl)-7-azaspiro[3.5]nonan-2-yl)piperazin-1-yl)benzamide] | 21 | 0.312 |  |  |  |
| CC1(C)C(NC(=O)c2ccc(CCN3CC4CN(C(=O)C5CCN(c6ccc7nnn(C8CCC(=O)NC8=O)c(=O)c7c6)CC5)CC4C3)cc2)C(C)(C)C1Oc1ccc(C#N)c(Cl)c1 (centres unmarked) [Example 93, N-((1r,3r)-3-(3-chloro-4-cyanophenoxy)-2,2,4,4-tetramethylcyclobutyl)-4-(2-(5-(1-(3-(2,6-dioxopiperidin-3-yl)-4-oxo-3,4-dihydrobenzo[d][1,2,3]triazin-6-yl)piperidine-4-carbonyl)hexahydropyrrolo[3,4-c]pyrrol-2(1H)-yl)ethyl)benzamide] |  | 0.0515 |  |  | 22.4 |
| CC1(C)C(NC(=O)c2ccc(CCN3CC4CN(C(=O)C5CN(c6ccc7nnn(C8CCC(=O)NC8=O)c(=O)c7c6)C5)CC4C3)cc2)C(C)(C)C1Oc1ccc(C#N)c(Cl)c1 (centres unmarked) [Example 94, N-((1r,3r)-3-(3-chloro-4-cyanophenoxy)-2,2,4,4-tetramethylcyclobutyl)-4-(2-(5-(1-(3-(2,6-dioxopiperidin-3-yl)-4-oxo-3,4-dihydrobenzo[d][1,2,3]triazin-6-yl)azetidine-3-carbonyl)hexahydropyrrolo[3,4-c]pyrrol-2(1H)-yl)ethyl)benzamide] |  | 0.108 |  |  | 7.84 |
| CC1(C)C(NC(=O)c2ccc(C#CC3CCN(CC4CCN(C(=O)C5CCN(c6ccc7nnn(C8CCC(=O)NC8=O)c(=O)c7c6)CC5)CC4)CC3)cc2)C(C)(C)C1Oc1ccc(C#N)c(Cl)c1 (centres unmarked) [Example 97, N-((1r,3r)-3-(3-chloro-4-cyanophenoxy)-2,2,4,4-tetramethylcyclobutyl)-4-((1-((1-(1-(3-(2,6-dioxopiperidin-3-yl)-4-oxo-3,4-dihydrobenzo[d][1,2,3]triazin-6-yl)piperidine-4-carbonyl)piperidin-4-yl)methyl)piperidin-4-yl)ethynyl)benzamide] |  | 0.0767 |  |  | 2.08 |
| CC1(C)C(NC(=O)c2ccc(-n3cc(C4CCN(C(=O)C5CCN(c6ccc7nnn(C8CCC(=O)NC8=O)c(=O)c7c6)CC5)CC4)nn3)cc2)C(C)(C)C1Oc1ccc(C#N)c(Cl)c1 (centres unmarked) [Example 102, N-((1r,3r)-3-(3-chloro-4-cyanophenoxy)-2,2,4,4-tetramethylcyclobutyl)-4-(4-(1-(1-(3-(2,6-dioxopiperidin-3-yl)-4-oxo-3,4-dihydrobenzo[d][1,2,3]triazin-6-yl)piperidine-4-carbonyl)piperidin-4-yl)-1H-1,2,3-triazol-1-yl)benzamide] |  | 0.0158 |  |  | 5.88 |
| CC1(C)C(NC(=O)c2ccc(-n3cc(CC4CCN(c5ccc6nnn(C7CCC(=O)NC7=O)c(=O)c6c5)CC4)nn3)cc2)C(C)(C)C1Oc1ccc(C#N)c(Cl)c1 (centres unmarked) [Example 103, N-((1r,3r)-3-(3-chloro-4-cyanophenoxy)-2,2,4,4-tetramethylcyclobutyl)-4-(4-((1-(3-(2,6-dioxopiperidin-3-yl)-4-oxo-3,4-dihydrobenzo[d][1,2,3]triazin-6-yl)piperidin-4-yl)methyl)-1H-1,2,3-triazol-1-yl)benzamide] |  | 0.144 |  |  | 12.3 |
| CC1(C)C(NC(=O)c2ccc(-n3cc(CC4CCN(C(=O)CNc5ccc6nnn(C7CCC(=O)NC7=O)c(=O)c6c5)CC4)nn3)cc2)C(C)(C)C1Oc1ccc(C#N)c(Cl)c1 (centres unmarked) [Example 106, N-((1r,3r)-3-(3-chloro-4-cyanophenoxy)-2,2,4,4-tetramethylcyclobutyl)-4-(4-((1-((3-(2,6-dioxopiperidin-3-yl)-4-oxo-3,4-dihydrobenzo[d][1,2,3]triazin-6-yl)glycyl)piperidin-4-yl)methyl)-1H-1,2,3-triazol-1-yl)benzamide] |  | 0.0691 |  |  | 11.3 |
| CC1(C)C(NC(=O)c2ccc(-n3cc(C4CCN(C(=O)CNc5ccc6nnn(C7CCC(=O)NC7=O)c(=O)c6c5)CC4)nn3)cc2)C(C)(C)C1Oc1ccc(C#N)c(Cl)c1 (centres unmarked) [Example 107, N-((1r,3r)-3-(3-chloro-4-cyanophenoxy)-2,2,4,4-tetramethylcyclobutyl)-4-(4-(1-((3-(2,6-dioxopiperidin-3-yl)-4-oxo-3,4-dihydrobenzo[d][1,2,3]triazin-6-yl)glycyl)piperidin-4-yl)-1H-1,2,3-triazol-1-yl)benzamide] |  | 0.0899 |  |  | 3.59 |
